The record followed here is patent US9096591B2, “Tetracyclic compounds” (Medivation Technologies, Inc., priority 2007, dated 2015).

Read-outs that look alike come from different tables or passages of the source.

Assay [1] has as its target T1, human recombinant serotonin (5-Hydroxytryptamine) 5-HT2A receptor (Homo sapiens, UniProt P28223).
T1 construct: expressed in transfected cells; host or cells: CHO-K1 cells
The assay can be described thus: Serotonin 5-HT2A radioligand binding ([3H]Ketanserin). The following applies: for Inhibition of ligand binding, Ser. 5-HT2A: percent inhibition of specific binding; for inhibition at 1 µM: read-out: Inhibition of ligand binding, Ser. 5-HT2A (percent inhibition of specific binding). The protocol: Compounds of the invention were incubated with 0.5 nM [^3H]Ketanserin for 60 minutes at 25° C. Non-specific binding was estimated in the presence of 1 μM Mianserin. Receptor proteins were filtered and washed, the filters were then counted to determine [^3H]Ketanserin specifically bound. […] Biochemical assay results are presented as the percent inhibition of specific binding in Table 6.

The target of assay [2] is T2, human recombinant adrenergic α2B receptor (Homo sapiens, UniProt P18089).
T2 construct: expressed in transfected cells; host or cells: CHO-K1 cells
T2 sequence (P18089 1-450): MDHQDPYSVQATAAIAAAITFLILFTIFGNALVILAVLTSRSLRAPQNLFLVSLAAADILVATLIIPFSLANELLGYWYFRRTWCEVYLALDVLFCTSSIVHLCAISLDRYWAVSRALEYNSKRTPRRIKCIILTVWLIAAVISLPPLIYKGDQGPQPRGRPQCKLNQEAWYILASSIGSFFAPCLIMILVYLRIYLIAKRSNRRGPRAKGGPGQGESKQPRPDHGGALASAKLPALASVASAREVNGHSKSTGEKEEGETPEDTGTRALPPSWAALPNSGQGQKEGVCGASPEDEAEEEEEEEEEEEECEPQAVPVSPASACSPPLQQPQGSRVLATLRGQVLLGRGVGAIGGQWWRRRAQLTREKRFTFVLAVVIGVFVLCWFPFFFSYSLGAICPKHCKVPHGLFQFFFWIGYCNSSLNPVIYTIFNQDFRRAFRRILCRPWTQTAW
The assay can be described thus: Adrenergic α2B radioligand binding ([3H]Rauwolscine). On the set-up: Inhibition of ligand binding, Adren. alpha2B: concentration or dose not given beside the values. The following applies: for Inhibition of ligand binding, Adren. alpha2B: percent inhibition of specific binding; for inhibition at 1 µM: compounds screened at 1 μM, read-out: Inhibition of ligand binding, Adren. alpha2B (percent inhibition of specific binding). The method in brief: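 Incubation ran 60 minutes at 25 °C in modified Tris-HCl buffer (50 mM, pH 7.4, 12.5 mM MgCl2, 1 mM EDTA, 0.2% BSA) using CHO-K1-expressed human receptor.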

The target in assay [3] is T3, human recombinant serotonin (5-Hydroxytryptamine) 5-HT2C receptor (Homo sapiens, UniProt P28335).
T3 construct: expressed in transfected cells; host or cells: CHO-K1 cells
T3 sequence (P28335 33-458): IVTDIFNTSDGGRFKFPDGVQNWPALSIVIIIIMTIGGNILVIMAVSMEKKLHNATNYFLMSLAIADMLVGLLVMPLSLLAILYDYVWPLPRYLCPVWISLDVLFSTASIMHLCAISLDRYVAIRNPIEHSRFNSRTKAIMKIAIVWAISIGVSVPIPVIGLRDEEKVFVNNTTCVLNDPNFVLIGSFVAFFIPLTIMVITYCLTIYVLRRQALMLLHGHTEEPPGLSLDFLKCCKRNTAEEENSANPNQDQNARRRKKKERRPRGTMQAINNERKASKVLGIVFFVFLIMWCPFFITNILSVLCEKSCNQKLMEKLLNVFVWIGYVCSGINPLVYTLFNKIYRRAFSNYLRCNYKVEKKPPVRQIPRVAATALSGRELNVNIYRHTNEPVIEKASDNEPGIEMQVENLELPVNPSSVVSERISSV
The experiment in a line: Serotonin 5-HT2C radioligand binding ([3H]Mesulergine). Also on record: Inhibition of ligand binding, Ser. 5-HT2C: concentration or dose not given beside the values. The following applies: for Inhibition of ligand binding, Ser. 5-HT2C: percent inhibition of specific binding; for inhibition at 1 µM: compounds screened at 1 μM, read-out: Inhibition of ligand binding, Ser. 5-HT2C (percent inhibition of specific binding). The procedure: Compounds of the invention were incubated with 1 nM [^3H]Mesulergine for 60 minutes at 25° C. Non-specific binding was estimated in the presence of 1 μM Mianserin. Receptor proteins were filtered and washed, the filters were then counted to determine [^3H]Mesulergine specifically bound. […] Biochemical assay results are presented as the percent inhibition of specific binding in Table 6.

Assay [4] addresses T4, human recombinant histamine H2 receptor (Homo sapiens, UniProt P25021).
T4 construct: expressed in transfected cells; host or cells: CHO-K1 cells
The experiment in a line: Histamine H2 radioligand binding ([125I]Aminopotentidine). The method in brief: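 This radioligand binding assay measured displacement of [125I]Aminopotentidine from recombinant human histamine H2 receptors. Compounds were dissolved in 1% DMSO vehicle. Specific binding was calculated by subtracting non-specific binding, defined using 3 μM Tiotidine, and activity was reported as percentage inhibition of that specific binding.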

Assay [5] concerns the target T5, human recombinant adrenergic α1D receptor (Homo sapiens, UniProt P25100).
T5 construct: expressed in transfected cells; host or cells: HEK-293 cells
T5 sequence (P25100 1-572): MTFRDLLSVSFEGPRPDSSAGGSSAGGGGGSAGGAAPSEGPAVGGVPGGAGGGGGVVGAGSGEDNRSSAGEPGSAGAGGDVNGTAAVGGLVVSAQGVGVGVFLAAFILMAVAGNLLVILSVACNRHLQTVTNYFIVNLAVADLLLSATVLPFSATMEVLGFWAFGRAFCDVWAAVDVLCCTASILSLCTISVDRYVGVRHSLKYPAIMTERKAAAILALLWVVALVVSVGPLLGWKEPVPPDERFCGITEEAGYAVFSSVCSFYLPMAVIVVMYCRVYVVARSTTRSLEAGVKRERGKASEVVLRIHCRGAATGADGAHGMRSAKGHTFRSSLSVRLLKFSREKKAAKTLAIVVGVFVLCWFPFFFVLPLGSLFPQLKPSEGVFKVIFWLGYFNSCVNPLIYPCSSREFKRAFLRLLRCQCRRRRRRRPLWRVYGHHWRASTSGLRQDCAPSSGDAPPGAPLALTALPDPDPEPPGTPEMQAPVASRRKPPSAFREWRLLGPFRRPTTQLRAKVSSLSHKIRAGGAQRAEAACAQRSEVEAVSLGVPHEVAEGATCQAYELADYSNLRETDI
The assay can be described thus: Adrenergic α1D radioligand binding ([3H]Prozosin). The following applies: for Inhibition of ligand binding, Adren. alpha1D: percent inhibition of specific binding; for inhibition at 1 µM: compounds screened at 1 μM, read-out: Inhibition of ligand binding, Adren. alpha1D (percent inhibition of specific binding). On the set-up: Inhibition of ligand binding, Adren. alpha1D: concentration or dose not given beside the values. The procedure: Compounds of invention were incubated with 0.6 nM [^3H]Prozosin for 60 minutes at 25° C. Non-specific binding was estimated in the presence of 10 μM phentolamine. Receptor proteins were filtered and washed, the filters were then counted to determine [^3H]Prozosin specifically bound. […] Biochemical assay results are presented as the percent inhibition of specific binding in Table 6.

The target in assay [6] is T6, human recombinant dopamine D2L receptor (Homo sapiens, UniProt P14416).
T6 construct: expressed in transfected cells; host or cells: CHO cells
The experiment in a line: Dopamine D2L radioligand binding ([3H]Spiperone). The following applies: for Inhibition of ligand binding, Dop. D2L: percent inhibition of specific binding; for inhibition at 1 µM: compounds screened at 1 μM, read-out: Inhibition of ligand binding, Dop. D2L (percent inhibition of specific binding). The protocol:
Non-specific binding was estimated in the presence of 10 μM Haloperidol. Receptor proteins were filtered and washed, the filters were then counted to determine [^3H]Spiperone specifically bound. […] Biochemical assay results are presented as the percent inhibition of specific binding in Table 6.

[7] abbreviates: percent inhibition of specific binding, screened at 1 μM, read-out: Inhibition of ligand binding, Hist. H2.
Setting [8] is: compounds screened at 1 μM, read-out: Inhibition of ligand binding, Hist. H2 (percent inhibition of specific binding).
The mark [9] stands for this setting: 1 μM compound, 0.1 nM [125I]Aminopotentidine, read-out: Histamine Binding H2, percent inhibition of specific binding.

A word on the inhibition: it is the drop in the measured response relative to a control, in per cent.

T6 sequence (P14416 whole entry): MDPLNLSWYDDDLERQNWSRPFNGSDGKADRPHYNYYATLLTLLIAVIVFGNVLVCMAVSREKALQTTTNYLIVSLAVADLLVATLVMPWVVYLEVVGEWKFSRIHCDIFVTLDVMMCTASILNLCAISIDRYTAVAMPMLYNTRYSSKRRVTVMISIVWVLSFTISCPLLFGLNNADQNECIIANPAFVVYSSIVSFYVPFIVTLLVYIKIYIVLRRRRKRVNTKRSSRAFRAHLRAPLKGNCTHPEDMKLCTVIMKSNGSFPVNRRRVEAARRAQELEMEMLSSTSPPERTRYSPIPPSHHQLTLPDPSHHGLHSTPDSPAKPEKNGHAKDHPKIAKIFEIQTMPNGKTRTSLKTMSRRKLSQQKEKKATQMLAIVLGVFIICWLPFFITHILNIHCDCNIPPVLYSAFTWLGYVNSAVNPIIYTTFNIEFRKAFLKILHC
T4 sequence (P25021 whole entry): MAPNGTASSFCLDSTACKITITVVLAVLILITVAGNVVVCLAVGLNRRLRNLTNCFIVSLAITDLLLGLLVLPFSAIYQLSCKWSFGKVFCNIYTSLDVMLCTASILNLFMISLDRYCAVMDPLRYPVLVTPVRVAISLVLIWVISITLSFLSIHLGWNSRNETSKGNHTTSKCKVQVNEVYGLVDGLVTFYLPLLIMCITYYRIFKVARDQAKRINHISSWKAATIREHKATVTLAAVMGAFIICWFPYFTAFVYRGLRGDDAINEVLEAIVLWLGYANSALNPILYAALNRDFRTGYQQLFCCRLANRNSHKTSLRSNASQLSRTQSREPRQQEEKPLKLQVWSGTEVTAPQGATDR
T1 sequence (P28223 whole entry): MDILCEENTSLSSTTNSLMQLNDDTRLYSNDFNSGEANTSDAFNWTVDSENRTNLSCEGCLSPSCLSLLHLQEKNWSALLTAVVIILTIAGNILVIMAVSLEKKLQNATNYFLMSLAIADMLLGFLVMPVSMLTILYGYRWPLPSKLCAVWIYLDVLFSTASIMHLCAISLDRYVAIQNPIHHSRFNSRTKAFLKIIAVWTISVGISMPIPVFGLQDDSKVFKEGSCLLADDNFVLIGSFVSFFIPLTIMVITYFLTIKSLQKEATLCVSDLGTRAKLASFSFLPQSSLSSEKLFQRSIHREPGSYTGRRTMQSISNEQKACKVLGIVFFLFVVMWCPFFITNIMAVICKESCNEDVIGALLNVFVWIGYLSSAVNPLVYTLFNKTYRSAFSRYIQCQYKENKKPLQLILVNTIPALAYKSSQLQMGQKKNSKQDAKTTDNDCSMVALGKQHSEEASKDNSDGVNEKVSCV

Consider `COc1ccc(CCn2c3c(c4cc(Cl)ccc42)CN(C)CC3)cc1F` [Compound 337, 5-(3-fluoro-4-methoxyphenethyl)-8-chloro-2,3,4,5-tetrahydro-2-methyl-1H-pyrido[4,3-b]indole], for which, in assay [1], the “Inhibition of ligand binding, Ser. 5-HT2A” value (shortened to “Inhibition … Ser. 5-HT2A”) is 101%. The “Inhibition of ligand binding, Adren. alpha2B” value (from here on “Inhibition … Adren. alpha2B”) in assay [2] was 117%. In assay [3], the “Inhibition of ligand binding, Ser. 5-HT2C” value (“Inhibition … Ser. 5-HT2C” below) amounted to 94%. Moreover, in assay [4] (setting [7]), the inhibition at 1 µM is 92%. Also, the “Inhibition of ligand binding, Adren. alpha1D” value (“Inhibition … Adren. alpha1D” below) in assay [5] turned out to be 97%. The “Inhibition of ligand binding, Dop. D2L” value in assay [6] was found to be 81%.

Take `CCOc1ccc(CCn2c3c(c4cc(C)ccc42)CN(C)CC3)cc1` [Compound 334, 5-[2-(4-Ethoxy-phenyl)-ethyl]-2,8-dimethyl-2,3,4,5-tetrahydro-1H-pyrido[4,3-b]indole]: the “Inhibition … Ser. 5-HT2A” value in assay [1] was found to be 101%. Moreover, the “Inhibition … Adren. alpha2B” value in assay [2] is on record as 111%. In assay [3], the “Inhibition … Ser. 5-HT2C” value was 97%. For the same compound, in assay [4] (setting [7]), the inhibition at 1 µM is 91%. The “Inhibition … Adren. alpha1D” value in assay [5] is given as 110%. In assay [6], the “Inhibition of ligand binding, Dop. D2L” value was 76%.

With `CN1CCc2c(c3cc(Cl)ccc3n2CCc2noc(-c3ccccc3)n2)C1` [Compound C4-6], the inhibition at 1 µM turned out to be 99% in assay [1]; 94% in assay [2]; 94% in assay [3]; 68% in assay [4] (setting [8]); 84% in assay [5]; 36% in assay [6].

For `Cc1ccc2c(c1)c1c(n2CCC2CCCCC2)CCN(C)C1` [Compound 163, 5-(2-cyclohexylethyl)-2,3,4,5-tetrahydro-2,8-dimethyl-1H-pyrido[4,3-b]indole], the “Inhibition … Ser. 5-HT2A” value in assay [1] is recorded as 92%. The “Inhibition … Adren. alpha2B” value in assay [2] came to 104%. For the same compound, the “Inhibition … Ser. 5-HT2C” value in assay [3] is reported as 99%. For the same compound, the inhibition at 1 µM in assay [4] (setting [9]) and in assay [4] (setting [7]) was 88% each time. For the same compound, the “Inhibition … Adren. alpha1D” value in assay [5] stood at 49%. For the same compound, the “Inhibition of ligand binding, Dop. D2L” value in assay [6] is reported as 36%.

Take `CN1CCc2c(c3cc(Cl)ccc3n2CCc2ccccc2)C1` [Compound 36, 8-chloro-2,3,4,5-tetrahydro-2-methyl-5-phenethyl-1H-pyrido[4,3-b]indole]: the “Inhibition … Ser. 5-HT2A” value in assay [1] amounted to 98%. Also, the “Inhibition … Adren. alpha2B” value in assay [2] was determined as 104%. Moreover, the “Inhibition … Ser. 5-HT2C” value in assay [3] amounted to 94%. The inhibition at 0.1 µM in assay [4] (0.1 μM compound, 0.1 nM [125I]Aminopotentidine, read-out: Histamine Binding H2, percent inhibition of specific binding) is 41%. In addition, the inhibition at 1 µM in assay [4] (setting [9]) and in assay [4] (setting [7]) was 92% in each case. For the same compound, in assay [5], the “Inhibition … Adren. alpha1D” value stood at 87%. Further, in assay [6], the “Inhibition of ligand binding, Dop. D2L” value was 92%.

As to `COc1ccc2c(c1)c1c(n2CCc2nc(-c3ccccc3)cs2)CCN(C)C1` [Compound C1-6], the inhibition at 1 µM came out at 84% in assay [1]; 110% in assay [2]; 90% in assay [3]; 21% in assay [4] (setting [8]); 72% in assay [5]; 29% in assay [6].

In the case of `CN1CCc2c(c3ccccc3n2CCc2noc(-c3ccccc3)n2)C1` [Compound C4-1], the inhibition at 1 µM in assay [1] came to 96%; in assay [2], 94%; in assay [3] it was 91%; in assay [4] (setting [8]), 47%; in assay [5], 60%; in assay [6], 14%.

As for `CN1CCc2c(c3cc(Cl)ccc3n2CC(=O)N2CCS(=O)(=O)CC2)C1` [Compound 295], the “Inhibition … Ser. 5-HT2A” value in assay [1] was 0%. In assay [2], the “Inhibition … Adren. alpha2B” value was found to be 18%. Moreover, the “Inhibition … Ser. 5-HT2C” value in assay [3] is recorded as −19%. In addition, the inhibition at 1 µM in assay [4] (setting [7]) amounted to 10%. Further, the “Inhibition … Adren. alpha1D” value in assay [5] is given as 4%. Besides, the “Inhibition of ligand binding, Dop. D2L” value in assay [6] was −7%.

As to `CN1CCc2c(c3cc(Cl)ccc3n2CC(=O)N2CC[S+]([O-])CC2)C1` [Compound 296, 2-(8-Chloro-2-methyl-1,2,3,4-tetrahydro-pyrido[4,3-b]indol-5-yl)-1-(1-oxo-1l4-thiomorpholin-4-yl)-ethanone], the “Inhibition … Ser. 5-HT2A” value in assay [1] worked out at 11%. For the same compound, the “Inhibition … Adren. alpha2B” value in assay [2] is −8%. Besides, in assay [3], the “Inhibition … Ser. 5-HT2C” value is on record as 2%. For the same compound, the inhibition at 1 µM in assay [4] (setting [7]) is -4%. Moreover, the “Inhibition … Adren. alpha1D” value in assay [5] is listed as 3%. For the same compound, the “Inhibition of ligand binding, Dop. D2L” value in assay [6] came to 3%.
